Measurements taken from PubChem BioAssay (NCI).
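Exposure lasted 48 hours, with cells grown in 96-well plates and compounds tested at five concentrations. At the GI50, growth is halved. At the TGI there is no net growth.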

How the values were obtained:
Test in all cases: DTP human tumour cell line panel, 48 h
A549 NSCLC = test system: A549 NSCLC
ACHN renal = test system: ACHN renal
CAKI-1 renal = test system: CAKI-1 renal
CCRF-CEM leukemia = test system: CCRF-CEM leukemia
COLO 205 colon = test system: COLO 205 colon
DU-145 prostate = test system: DU-145 prostate
EKVX NSCLC = test system: EKVX NSCLC
HCC-2998 colon = test system: HCC-2998 colon
HCT-15 colon = test system: HCT-15 colon
HL-60(TB) leukemia = test system: HL-60(TB) leukemia
HOP-62 NSCLC = test system: HOP-62 NSCLC
HOP-92 NSCLC = test system: HOP-92 NSCLC
HS 578T breast = test system: HS 578T breast
HT29 colon = test system: HT29 colon
IGROV1 ovarian = test system: IGROV1 ovarian
K-562 leukemia = test system: K-562 leukemia
KM12 colon = test system: KM12 colon
LOX IMVI melanoma = test system: LOX IMVI melanoma
M14 melanoma = test system: M14 melanoma
MCF7 breast = test system: MCF7 breast
MDA-MB-231 breast = test system: MDA-MB-231 breast
MDA-MB-435 = test system: MDA-MB-435
MDA-N = test system: MDA-N
MOLT-4 leukemia = test system: MOLT-4 leukemia
NCI-H226 lung = test system: NCI-H226 lung
NCI-H23 lung = test system: NCI-H23 lung
NCI-H460 lung = test system: NCI-H460 lung
NCI-H522 lung = test system: NCI-H522 lung
OVCAR-3 ovarian = test system: OVCAR-3 ovarian
OVCAR-4 ovarian = test system: OVCAR-4 ovarian
OVCAR-5 ovarian = test system: OVCAR-5 ovarian
PC-3 prostate = test system: PC-3 prostate
RPMI-8226 leukemia = test system: RPMI-8226 leukemia
RXF 393 renal = test system: RXF 393 renal
SF-268 CNS = test system: SF-268 CNS
SF-295 CNS = test system: SF-295 CNS
SF-539 CNS = test system: SF-539 CNS
SK-MEL-2 melanoma = test system: SK-MEL-2 melanoma
SK-MEL-28 melanoma = test system: SK-MEL-28 melanoma
SK-MEL-5 melanoma = test system: SK-MEL-5 melanoma
SK-OV-3 ovarian = test system: SK-OV-3 ovarian
SN12C renal = test system: SN12C renal
SNB-19 CNS = test system: SNB-19 CNS
SNB-75 CNS = test system: SNB-75 CNS
SR leukemia = test system: SR leukemia
SW-620 colon = test system: SW-620 colon
T-47D breast = test system: T-47D breast
TK-10 renal = test system: TK-10 renal
U251 CNS = test system: U251 CNS
UACC-257 melanoma = test system: UACC-257 melanoma
UACC-62 melanoma = test system: UACC-62 melanoma
UO-31 renal = test system: UO-31 renal
786-0 renal = test system: 786-0 renal
A498 renal = test system: A498 renal
BT-549 breast = test system: BT-549 breast
HCT-116 colon = test system: HCT-116 colon
MALME-3M melanoma = test system: MALME-3M melanoma
NCI/ADR-RES ovarian = test system: NCI/ADR-RES ovarian
OVCAR-8 ovarian = test system: OVCAR-8 ovarian

## COc1nc2ccc(COc3ccc(C(=O)NC(CCC(=O)O)C(=O)O)cc3)cc2nc1OC (stereo not drawn)
A549 NSCLC
  TGI: > 10 µM
ACHN renal
  TGI: > 10 µM
CAKI-1 renal
  TGI: > 10 µM
CCRF-CEM leukemia
  TGI: > 10 µM
COLO 205 colon
  TGI: > 10 µM
DU-145 prostate
  TGI: > 10 µM
EKVX NSCLC
  TGI: > 10 µM
HCC-2998 colon
  TGI: > 10 µM
HCT-15 colon
  TGI: > 10 µM
HL-60(TB) leukemia
  TGI: > 10 µM
HOP-62 NSCLC
  TGI: > 10 µM
HOP-92 NSCLC
  TGI: > 10 µM
HS 578T breast
  TGI: > 10 µM
HT29 colon
  TGI: > 10 µM
IGROV1 ovarian
  TGI: > 10 µM
K-562 leukemia
  TGI: > 10 µM
KM12 colon
  TGI: > 10 µM
LOX IMVI melanoma
  TGI: > 10 µM
M14 melanoma
  TGI: > 10 µM
MCF7 breast
  TGI: > 10 µM
MDA-MB-231 breast
  TGI: > 10 µM
MDA-MB-435
  TGI: > 10 µM
MDA-N
  TGI: > 10 µM
MOLT-4 leukemia
  TGI: > 10 µM
NCI-H226 lung
  TGI: > 10 µM
NCI-H23 lung
  TGI: > 10 µM
NCI-H460 lung
  TGI: > 10 µM
NCI-H522 lung
  TGI: > 10 µM
OVCAR-3 ovarian
  TGI: > 10 µM
OVCAR-4 ovarian
  TGI: > 10 µM
OVCAR-5 ovarian
  TGI: > 10 µM
PC-3 prostate
  TGI: > 10 µM
RPMI-8226 leukemia
  TGI: > 10 µM
RXF 393 renal
  TGI: > 10 µM
SF-268 CNS
  TGI: > 10 µM
SF-295 CNS
  TGI: > 10 µM
SF-539 CNS
  TGI: > 10 µM
SK-MEL-2 melanoma
  TGI: > 10 µM
SK-MEL-28 melanoma
  TGI: > 10 µM
SK-MEL-5 melanoma
  TGI: > 10 µM
SK-OV-3 ovarian
  TGI: > 10 µM
SN12C renal
  TGI: > 10 µM
SNB-19 CNS
  TGI: > 10 µM
SNB-75 CNS
  TGI: > 10 µM
SR leukemia
  TGI: > 10 µM
SW-620 colon
  TGI: > 10 µM
T-47D breast
  TGI: > 10 µM
TK-10 renal
  TGI: > 10 µM
U251 CNS
  TGI: > 10 µM
UACC-257 melanoma
  TGI: > 10 µM
UACC-62 melanoma
  TGI: > 10 µM
UO-31 renal
  TGI: > 10 µM

## Cc1cccc(-c2[nH]ncc2-c2ccc3ncccc3n2)n1
786-0 renal
  GI50: 11.1 µM
  TGI: > 25 µM
A498 renal
  GI50: > 14.1 µM
  TGI: > 25 µM
A549 NSCLC
  GI50: 9.27 µM
  TGI: > 25 µM
ACHN renal
  GI50: 7.1 µM
  TGI: > 25 µM
BT-549 breast
  GI50: > 25 µM
  TGI: > 25 µM
CAKI-1 renal
  GI50: > 19 µM
  TGI: > 25 µM
CCRF-CEM leukemia
  GI50: 12.4 µM
  TGI: > 25 µM
COLO 205 colon
  GI50: 6.31 µM
  TGI: 16.7 µM
DU-145 prostate
  GI50: 12.8 µM
  TGI: > 25 µM
EKVX NSCLC
  GI50: > 20.7 µM
  TGI: > 25 µM
HCC-2998 colon
  GI50: > 25 µM
  TGI: > 25 µM
HCT-116 colon
  GI50: 7.78 µM
  TGI: > 25 µM
HCT-15 colon
  GI50: 9.98 µM
  TGI: > 25 µM
HL-60(TB) leukemia
  GI50: 10 µM
  TGI: > 23.7 µM
HOP-62 NSCLC
  GI50: 9.59 µM
  TGI: > 25 µM
HOP-92 NSCLC
  GI50: 10 µM
  TGI: > 25 µM
HS 578T breast
  GI50: > 14.5 µM
  TGI: > 25 µM
HT29 colon
  GI50: 12.1 µM
  TGI: > 25 µM
IGROV1 ovarian
  GI50: 13 µM
  TGI: > 25 µM
K-562 leukemia
  GI50: > 25 µM
  TGI: > 25 µM
KM12 colon
  GI50: 9.51 µM
  TGI: > 25 µM
LOX IMVI melanoma
  GI50: 7.56 µM
  TGI: > 25 µM
M14 melanoma
  GI50: 10.8 µM
  TGI: > 25 µM
MALME-3M melanoma
  GI50: > 25 µM
  TGI: > 25 µM
MCF7 breast
  GI50: 8.48 µM
  TGI: > 25 µM
MDA-MB-231 breast
  GI50: 14.5 µM
  TGI: > 25 µM
MDA-MB-435
  GI50: 15.4 µM
  TGI: > 25 µM
MOLT-4 leukemia
  GI50: 14.2 µM
  TGI: > 25 µM
NCI-H226 lung
  GI50: 9.92 µM
  TGI: > 25 µM
NCI-H23 lung
  GI50: 14.2 µM
  TGI: > 25 µM
NCI-H460 lung
  GI50: 8.76 µM
  TGI: > 25 µM
NCI-H522 lung
  GI50: > 25 µM
  TGI: > 25 µM
NCI/ADR-RES ovarian
  GI50: 13.7 µM
  TGI: > 25 µM
OVCAR-3 ovarian
  GI50: 14.4 µM
  TGI: > 25 µM
OVCAR-4 ovarian
  GI50: > 22.4 µM
  TGI: > 25 µM
OVCAR-5 ovarian
  GI50: 9.82 µM
  TGI: > 25 µM
OVCAR-8 ovarian
  GI50: 8.54 µM
  TGI: > 25 µM
PC-3 prostate
  GI50: > 17.3 µM
  TGI: > 25 µM
RPMI-8226 leukemia
  GI50: > 15.1 µM
  TGI: > 25 µM
RXF 393 renal
  GI50: 5.87 µM
  TGI: 12.7 µM
SF-268 CNS
  GI50: 10.5 µM
  TGI: > 25 µM
SF-295 CNS
  GI50: 13.7 µM
  TGI: > 25 µM
SF-539 CNS
  GI50: 17.4 µM
  TGI: > 25 µM
SK-MEL-2 melanoma
  GI50: 10.7 µM
  TGI: > 25 µM
SK-MEL-28 melanoma
  GI50: 13.3 µM
  TGI: > 25 µM
SK-MEL-5 melanoma
  GI50: 9.63 µM
  TGI: > 18.5 µM
SK-OV-3 ovarian
  GI50: > 21.9 µM
  TGI: > 25 µM
SN12C renal
  GI50: 9.64 µM
  TGI: > 25 µM
SNB-19 CNS
  GI50: 13.2 µM
  TGI: > 25 µM
SNB-75 CNS
  GI50: 5.74 µM
  TGI: > 23.9 µM
SR leukemia
  GI50: 9.2 µM
  TGI: > 25 µM
SW-620 colon
  GI50: 9.88 µM
  TGI: > 25 µM
T-47D breast
  GI50: 7.07 µM
  TGI: > 23.9 µM
TK-10 renal
  GI50: 13 µM
  TGI: > 25 µM
U251 CNS
  GI50: 9.54 µM
  TGI: > 25 µM
UACC-257 melanoma
  GI50: > 21.3 µM
  TGI: > 25 µM
UACC-62 melanoma
  GI50: 13.7 µM
  TGI: > 25 µM
UO-31 renal
  GI50: 6.17 µM
  TGI: > 25 µM
